Test results reported in the NIST ThermoML archive (doi:10.1016/j.jct.2005.02.014).

Assay: molar heat capacity at constant pressure
Conditions: 101.33 kPa, Crystal

[Gd+3].[Gd+3].[O-2].[O-2].[O-2] [gadolinium sesquioxide]
Conditions	molar heat capacity at constant pressure [J/K/mol]
5.34 K	4.24
5.84 K	5.88
6.65 K	6.66
8.48 K	4.7
10.16 K	3.95
11.17 K	3.51
11.58 K	3.33
13.24 K	3.19
13.72 K	3.18
14.69 K	3.17
15.56 K	3.2
15.84 K	3.18
16.98 K	3.47
17.06 K	3.5
18.14 K	3.76
18.46 K	3.8
19.29 K	4.28
19.86 K	4.28
20 K	4.32
20.63 K	4.51
21.24 K	4.73
21.97 K	5.08
22.65 K	5.27
23.31 K	5.65
23.91 K	5.87
24.66 K	6.36
25 K	6.55
25.22 K	6.67
26.02 K	7.26
26.08 K	7.21
26.79 K	7.55
27.33 K	7.65
27.99 K	7.92
28.5 K	8.29
29.64 K	8.93
30 K	9.163
31.19 K	9.927
32.73 K	10.96
34.3 K	11.95
35 K	12.42
35.9 K	13.02
37.53 K	13.85
39.19 K	14.85
40 K	15.35
40.87 K	15.9
42.55 K	17.06
44.25 K	18.21
45 K	18.7
45.96 K	19.33
47.7 K	20.45
49.45 K	21.55
50 K	21.9
51.21 K	22.67
52.99 K	23.75
54.78 K	24.86
56.58 K	26
58.39 K	27.1
60 K	28.03
60.22 K	28.16
62.05 K	29.26
63.89 K	30.33
65.75 K	31.37
67.61 K	32.46
69.47 K	33.54
70 K	33.85
71.35 K	34.62
73.23 K	35.69
75.12 K	36.68
77.01 K	37.74
78.91 K	38.79
80 K	39.37
80.81 K	39.79
82.72 K	40.83
83.39 K	41.24
84.63 K	41.9
85.99 K	42.64
86.55 K	42.9
88.47 K	43.84
88.8 K	44.12
90 K	44.63
90.39 K	44.82
91.62 K	45.57
92.32 K	45.88
93.14 K	46.35
93.67 K	46.53
94.25 K	46.87
94.44 K	46.97
94.91 K	47.23
96.18 K	47.87
96.86 K	48.18
97.27 K	48.4
98.12 K	48.9
98.79 K	49.39
100 K	50.12
100.06 K	50.15
100.11 K	50.21
100.72 K	50.42
102.65 K	51.08
102.97 K	51.17
104.58 K	51.98
105.83 K	52.6
106.52 K	53
108.46 K	54.02
108.7 K	54.13
110.4 K	54.87
111.58 K	55.27
112.35 K	55.75
114.3 K	56.56
114.46 K	56.66
116.25 K	57.42
117.35 K	57.9
118.2 K	58.29
120 K	58.58
120.15 K	58.66
120.24 K	58.72
122.11 K	59.91
123.15 K	60.56
124.07 K	60.93
126.02 K	61.79
126.04 K	61.82
127.98 K	62.72
128.94 K	63.08
129.95 K	63.54
131.83 K	64.33
131.91 K	64.31
133.87 K	65.17
134.73 K	65.5
135.84 K	65.98
137.64 K	66.69
137.81 K	66.76
139.77 K	67.58
140 K	67.66
140.55 K	67.86
141.74 K	68.33
143.47 K	69
143.71 K	69.08
145.68 K	69.88
146.39 K	70.15
147.65 K	70.61
149.31 K	71.26
149.62 K	71.38
151.6 K	72.1
152.23 K	72.33
153.57 K	72.82
155.16 K	73.39
155.55 K	73.55
157.52 K	74.24
158.09 K	74.43
159.5 K	74.94
160 K	75.12
161.02 K	75.46
161.47 K	75.6
163.45 K	76.3
163.95 K	76.42
165.43 K	76.95
166.88 K	77.42
167.41 K	77.62
169.38 K	78.25
169.82 K	78.4
171.36 K	78.94
172.76 K	79.32
173.34 K	79.5
175.32 K	80.12
175.7 K	80.25
